Tests used:
[1] = tested on: human volunteer subjects; settings: one subject
Source text: As with ApEn, these entropy measures compare changes in the time series of raw EEG data as it is generated. However, they are designed to determine qualities about the system which is generating the data. As such, they have potential to impart information about changes in CNS rather than just changes in the EEG. Information can be related about the CNS from a mesoscopic scale to a microscopic scale. […] Correlation dimension has not been used for real time analyses in the past because the computation usually requires large data sets for precise determination of the actual dimension of the data space. (See, Preissl, H., W. Lutzenberger, F. Pulvermuller, and N. Birbaumer, Fractal dimensions of short EEG time series in humans. Neurosci Lett, 1997. 225: p. 77-80.) To address this problem, we used short segments (e.g., 10 seconds) of data to calculate the correlation dimension and averaged the critical distance parameter ε, with each new estimate. Though this limits the accuracy with which signal dimension can be determined, it provides a reasonable estimate that changes as signal complexity changes.
Using the same raw EEG data, Lyapunov exponents of the EEG were also determined. Lyapunov exponents provide a qualitative indicator of signal stability. Unstable signals are sensitive to initial conditions and thus the predictability of their future trajectory is difficult. […]

[2] = tested on: human volunteer subjects; settings: in vivo

In the case of `CC(C)c1cccc(C(C)C)c1O` [propofol], the “Lyapunov exponent with increasing sedation” value ([1]; FIG. 9) was “tends towards a positive value”, the “changes in correlation dimension by clinical frequency band” value ([1]; awake to deeper levels of sedation, FIG. 8) was “appear in the higher frequency ranges first” and the “change in ApEn with drug concentration” value [2] was “decreased”.

— US7725174B2 (priority 2006, dated 2010)
